Experimental data taken from US20110262566A1, “NOVEL USEFUL THERAPEUTIC AGENT FOR LOWER URINARY TRACT SYMPTOM” (DAINIPPON SUMITOMO PHARMA CO., LTD., priority 2008, published 2011).

Tests used:
small DRG neurons [1] = test: Test Example 1: action of the compound A on C-fiber activation (high-K-induced rise in membrane potential, DiBAC4(3) fluorescence); format: cell-based, rat; conditions: compound A 3 μM pretreated between 1st and 2nd 60 mM K stimulations; control 72±3%
Description: This test was performed using male SD strain rats at 6 to 7 weeks of age after birth. The animals were reared in metal cages, and allowed to take food (CE-2; CLEA Japan) and water ad libitum.
Rat spinal cord was dissected under halothane anesthesia. DRG tissue was removed from the spinal cord under a stereoscopic microscope, and recovered into an ice-cooled culture dish containing DMEM. The DRG tissue was digested using 0.25% trypsin and 0.38% collagenase, and DRG neurons were isolated. The DRG neurons were seeded to a cover glass coated with Poly-L-Lysine and laminin, and cultured.
On the day after the start of cultivation, the DRG neurons were loaded with 5 μM DiBAC4(3) in the presence of 5% gaseous carbon dioxide at 37° C. for 1 hour or more. Thereafter, the neurons were transferred to an assay buffer solution (pH 7.3; 10 mM HEPES, 145 mM NaCl, 5 mM KCl, 2 mM CaCl2, 1 mM MgCl2, mM Glucose), and the fluorescence intensity of each DRG neuron was measured using the image analytical system AQUACOSMOS (Hamamatsu Photonics).
When small DRG neurons were selected and stimulated with 60 mM high-concentration K solution (pH 7.3; 10 mM HEPES, 90 mM NaCl, 60 mM KCl, 2 mM CaCl2, 1 mM MgCl2, 10 mM Glucose), a rise in membrane potential was observed. When the 60 mM high-concentration K solution was replaced with the assay buffer solution, the transiently-elevated membrane potential fell rapidly. […]

small DRG neurons [2] = test: Test Example 2: combination effect with α1-adrenergic receptor blocker (high-K-induced rise in membrane potential, DiBAC4(3) fluorescence); format: cell-based, rat; conditions: control 72±3%
Description: This test was performed using male SD strain rats at 6 to 7 weeks of age after birth. The animals were reared in metal cages, and allowed to take food (CE-2; CLEA Japan) and water ad libitum. Rat spinal cord was dissected under halothane anesthesia. DRG tissue was removed from the spinal cord under a stereoscopic microscope, and recovered into an ice-cooled culture dish containing DMEM. The DRG tissue was digested using 0.25% trypsin and 0.38% collagenase, and DRG neurons were isolated. The DRG neurons were seeded to a cover glass coated with Poly-L-Lysine and laminin, and cultured. On the day after the start of cultivation, the DRG neurons were loaded with 5 μM DiBAC4(3) in the presence of 5% gaseous carbon dioxide at 37° C. for 1 hour or more. Thereafter, the neurons were transferred to an assay buffer solution (pH 7.3; 10 mM HEPES, 145 mM NaCl, 5 mM KCl, 2 mM CaCl2, 1 mM MgCl2, mM Glucose), and the fluorescence intensity of each DRG neuron was measured using the image analytical system AQUACOSMOS (Hamamatsu Photonics). When small DRG neurons were selected and stimulated with 60 mM high-concentration K solution (pH 7.3; 10 mM HEPES, 90 mM NaCl, 60 mM KCl, 2 mM CaCl2, 1 mM MgCl2, 10 mM Glucose), a rise in membrane potential was observed. When the 60 mM high-concentration K solution was replaced with the assay buffer solution, the transiently-elevated membrane potential fell rapidly. […]

With `O=C1Nc2ccccc2[C@H](c2ccccc2)N1C1CCN(Cc2cccc(OC(F)(F)F)c2)CC1` [compound A, (+)-3-{1-[3-(trifluoromethoxy)benzyl]piperidin-4-yl}-4-phenyl-3,4-dihydro-2(1H)-quinazolinone] the “rise in membrane potential (ΔF/F), second rise relative to first rise as 100%” value (small DRG neurons [1]) was 66±6%.

`COc1ccccc1N1CCN(CC(O)COc2cccc3ccccc23)CC1` (stereo not drawn) [naftopidil] was tested, and the “rise in membrane potential (ΔF/F), second rise relative to first rise as 100%” value (small DRG neurons [2]; naftopidil 30 μM alone, treated between 1st and 2nd 60 mM K stimulations) was 40±5%.

With `CCOc1ccccc1OCCN[C@H](C)Cc1ccc(OC)c(S(N)(=O)=O)c1` [tamsulosin] the “change in membrane potential” value (small DRG neurons [2]; tamsulosin 0.1 μM alone, pretreatment, 60 mM K stimulation) was “nearly the same extent as with the control”.
